One assay deals with ALK1 kinase (Homo sapiens (Human), UniProt P37023). Briefly: ALK1 kinase assay (ProQinase protocol). To be noted: ProQinase radiometric assay, casein, γ-33P-ATP. It is filed as biochemical. How it is done: B-1b. ALK1 Kinase Assay (ProQinase Protocol)
ALK1 (Invitrogen, Carlsbad, Calif., USA) kinase activity was measured at ProQinase GmbH (Freiburg, Germany) in a radiometric assay using γ-^33P-ATP and casein (Sigma, St. Louis, Mo., USA) as substrate in 96-well PerkinElmer FlashPlates™ (Boston, Mass., USA). The compounds were tested at 10 concentrations in the range of 1×10^−4 M to 3×10^−9 M in a total volume of 50 μl with a final DMSO concentration of 1% each. The assay components were mixed in the order: • 20 μl assay buffer (70 mM HEPES-NaOH, pH 7.5, 3 mM MgCl2, 3 mM MnCl2, 2 μM sodium orthovanadate, 1.2 mM DTT); • 5 μl γ-^33P-ATP (1.0 μM in water, approx. 6×10^5 cpm per well); • 5 μl test compound solution (in 10% DMSO); • […] (200 μg/ml, 1.0 μg/50 μl final concentration)/enzyme (4 μg/ml, 20 ng/50 μl=5.5 nM final concentration) solution (1:1 mixture).
The reaction mixtures were incubated at 30° C. for 60 minutes and stopped by adding 50 μl 2% (v/v) phosphoric acid. The plates were aspirated and washed twice with 200 μl 0.9% (w/v) sodium chloride. Incorporation of ^33Pi was determined with a microplate scintillation counter (Microbeta, Wallac). All assays were performed using a BecicmanCoulter/SAGIAN™ Core System.
Median values obtained from unspecific substrate binding of labelled. ATP were set as background level, while median values measured in the absence of any inhibitor were considered to reflect full activity of ALK1 kinase. The background activity (ba) was subtracted from the full activity (fa) value as well as from the values obtained from the test compound containing samples (test compound activity, tea). The residual activity in the latter was calculated as follows: residual activity (%)=100×[(tca−ba)/(fa−ba)]
The residual activities for each concentration and the compound IC50 values were calculated using Quattro Workflow V3.1.0 (Quattro Research GmbH, Munich, Germany). The fitting model for the IC50 determinations was “Sigmoidal response (variable slope)” with parameters “top” fixed at 100% and “bottom” at 0%. The fitting method used was a least-squares fit.

For assay [1], the system named is laser-induced choroidal neovascularisation. Briefly: Systemic efficacy in the laser-induced choroidal neovascularization (CNV) model. Format: in vivo, rat. To be noted: Brown-Norway rats, i.p. once daily 50 mg/kg days 0-1 then 20 mg/kg. How it is done: B-3. Systemic Efficacy in the Laser-Induced Choroidal Neovascularization (CNV) Model
For this purpose, 16 pigmented Brown-Norway rats with no visible sign of ocular defects were selected and randomly divided into two groups of eight animals each. On day 0, the animals were anaesthetized by an intraperitoneal injection (15 mg/kg xylazine and 80 mg/kg ketamine). After instillation of one drop of 0.5% tropicamide to dilate the pupils, choroidal neovascularisation was induced by executing six 75 μm-sized choroidal burns around the optic disc of the right eyes using a 532 nm argon laser photocoagulation at 150 mW for 100 ms. […] The body weight of all animals was recorded before the start and once daily during the study.
An angiography was performed on day 21 using Heidelberg's Retinal Angiograph (HRA). After anaesthesia and pupillary dilation, 10% sodium fluorescein dye was injected subcutaneously, and images were recorded 10 min after dye injection. The vascular leakage of the fluorescein on the angiograms was evaluated by two examiners in a masked fashion and scored with 0 (no leakage) to 3 (strongly stained).
After euthanasia on day 23, the eyes were harvested and fixed in 4% paraformaldehyde solution for 1 hour at room temperature. […] The flat-mounted preparations were examined under a fluorescence microscope (Apotom) at 488 nm excitation wavelength. […]

Sequence of ALK1 kinase (P37023 22-503): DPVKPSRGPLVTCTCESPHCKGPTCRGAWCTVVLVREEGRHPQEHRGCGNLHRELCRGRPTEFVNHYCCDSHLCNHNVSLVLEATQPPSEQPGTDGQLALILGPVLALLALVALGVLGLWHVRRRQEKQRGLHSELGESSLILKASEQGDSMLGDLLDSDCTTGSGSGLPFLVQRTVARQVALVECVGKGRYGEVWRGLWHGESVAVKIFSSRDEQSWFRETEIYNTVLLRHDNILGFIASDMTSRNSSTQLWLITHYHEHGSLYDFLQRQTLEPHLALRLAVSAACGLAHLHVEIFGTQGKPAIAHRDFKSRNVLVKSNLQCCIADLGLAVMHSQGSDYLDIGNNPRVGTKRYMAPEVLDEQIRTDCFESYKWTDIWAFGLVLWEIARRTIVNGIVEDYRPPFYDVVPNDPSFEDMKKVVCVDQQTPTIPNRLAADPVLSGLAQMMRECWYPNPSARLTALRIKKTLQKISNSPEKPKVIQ

Usually IC50 stands for the concentration that inhibits the measured activity by half. `Nc1ncnn2c1c(-c1cc(F)c(CO)c(F)c1)cc2[C@H]1CC[C@H](O)CC1` [Example 7, trans-4-[4-Amino-5-[3,5-difluoro-4-(hydroxymethyl)phenyl]pyrrolo[2,1-f][1,2,4]triazin-7-yl]-cyclohexanol]: on ALK1 kinase, the IC50 is 6.7 nM. That is a single-digit nanomolar value.
Compound `Nc1ncnn2c([C@@H]3CCCNC3)cc(-c3cc(F)c(CO)c(F)c3)c12` [Example 11, (4-{4-Amino-7-[(3R)-piperidin-3-yl]pyrrolo[2,1-f][1,2,4]triazin-5-yl}-2,6-difluorophenyl)methanol] had an IC50 at ALK1 kinase of 3 nM. Also, the “vascular leakage [angiography score]” value in assay [1] (angiography day 21, score 0-3) is 0.68 ± 0.35 angiography score. In addition, the “choroidal neovascularisation lesion volume” value in assay [1] (day 23) is recorded as 3.48 ± 0.40 μm^3 × 100 000.
